The test system of the first assay is Pseudomonas sp. strain PED alcohol dehydrogenase. Put plainly: PED alcohol dehydrogenase enzyme assay, reduction of carbonyl substrates (relative rates). The assay is classed as biochemical.
Settings: not given
In the case of `CCCC(C)=O` [Compound 60], the Relative rate came to 6. On the same count and under the same terms, the figure for `CC(=O)/C=C/c1ccccc1` [Compound 54] is 0; for `CCC(=O)c1ccccc1` [Compound 58] it is under 1. `O=C(CCl)CCl` [Compound 36] gave a Relative rate of 6.

Turning to `C#CC(C)=O` [Compound 64, 1-Butyn-3-one], the Relative rate worked out at 1. In turn, `O=C(CCCCl)c1ccc(F)cc1` [Compound 16] registered a Relative rate of 0. The same measure, in the same setting: the result for `CC(=O)CCC=C(C)C` [Compound 23] reads 7; that for `CC(=O)C#Cc1ccccc1` [Compound 51], under 0.1. On the same count and under the same terms, the figure for `COC(=O)CC(=O)CCl` [Compound 9, methyl 4-chloro-3-oxobutanoate] is 4. `CN(C)CCC(=O)c1ccccc1` [Compound 49]: the Relative rate was 8. Molecule `CC(=O)C(C)Cl` (stereo not drawn) [Compound 65] returned a Relative rate of 11. Take `CCCCC(C)=O` [Compound 61]: the Relative rate was 5.

`COC(=O)CC(C)=O` [Compound 27] displayed a Relative rate of 135.

`CC(=O)C(Cl)C(C)=O` [Compound 26] returned a Relative rate of 336.

The molecule `CCC(C)=O` [Compound 59] showed a Relative rate of 100. On the same count and under the same terms, the result for `CC(C)[C@@H]1CC[C@@H](C)CC1=O` [Compound 41] reads 3.4; that for `CC(=O)CCCCl` [Compound 11, 5-chloro-2-pentanone], 5. `O=C(c1ccccc1)C(F)(F)F` [Compound 1, trifluoroacetophenone] displayed a Relative rate of 7. Same read-out and setting: the figure for `CC(=O)CCC=C(C)C` [Compound 10, 6-methyl-5-hepten-2-one] is 6; for `CC(=O)CCC(C)=O` [Compound 28] it is 9. Turning to `CC(=O)C(=O)c1ccccc1` [Compound 3, 1-phenyl-1,2-propanedione], the Relative rate came to 34.

The assay is the same for the next values; noted with them: Table 1; reduction, 10 mM ketone, 0.45 mM NADH, PED, change in absorbance at 340 nm; Compound 2 = 1 (2.1 U/mg enzyme).
In turn, `O=C1CCCCc2ccccc21` [Compound 21] had a Relative rate of 4. Still for that read-out and setting: the figure for `O=C(CCCCl)c1ccccc1` [Compound 8] is 4; for `O=C(c1ccccc1)C1CC1` [Compound 7, phenyl cyclopropyl ketone] it is under 1; for `CC(=O)c1ccccc1` [Compound 2, acetophenone] it is 1.

Consider `COC(=O)C(=O)c1ccccc1` [Compound 4, methyl benzoylformate], for which the Relative rate is given as 4. On the same count and under the same terms, the figure for `O=C(CCCCl)c1ccc(O)cc1` [Compound 15] is 0. Molecule `CC(=O)CCc1ccccc1` [Compound 6, 4-phenyl-2-butanone] gave a Relative rate of 6. Still for that read-out and setting: the figure for `O=C(CC(=O)C(F)(F)F)c1cccs1` [Compound 18] is 0. On the same count and under the same terms, the figure for `CCCCC(=O)c1ccco1` [Compound 12] is under 0.1. On the same count and under the same terms, the result for `O=C(CCCCl)c1cccs1` [Compound 17] reads 4.

The molecule `O=C[C@@H]1C[C@H]1c1ccccc1` (relative stereo) [Compound 5, 1-carboxaldehyde-2-phenylcyclopropane] yielded a Relative rate of 7. The same measure, in the same setting: the result for `O=C(CCl)c1ccc(O)c(O)c1` [Compound 14] reads under 0.1; that for `CCCCCC(=O)CC` [Compound 13, 3-octanone], 3.

`COc1coc(C(C)=O)c1OC` [Compound 20]: the Relative rate is given as 0.6. Molecule `CC(=O)c1ccco1` [Compound 19] showed a Relative rate of 0.

The same assay, now with this note: Table 2; determined as described in Table 1 (10 mM ketone, 0.45 mM NADH, 340 nm).
In the case of `CC(=O)C1CC1` [Compound 66], the Relative rate is 11. Molecule `O=C1CCSc2ccccc21` [Compound 56] came in with a Relative rate of 0.

As for `COC(C)=CC(C)=O` [Compound 24], the Relative rate is 0. Same read-out and setting: the figure for `C/C=C/C(C)=O` [Compound 70] is under 0.1. `COC(OC)C(C)=O` [Compound 69] showed a Relative rate of 5. Same read-out and setting: the figure for `COC(=O)C1CCCC1=O` (stereo not drawn) [Compound 31] is 22; for `C=CC(=O)CCCCC` [Compound 34] it is 6; for `CC(=O)C1CC2C=CC1C2` (stereo not drawn) [Compound 46] it is 0. Still for that read-out and setting: the figure for `CC(=O)c1ccc2c(c1)OCCO2` [Compound 52] is 0. On the same count and under the same terms, the figure for `CC(=O)c1ccccn1` [Compound 57] is 1.8; for `CC1C(=O)CCC1=O` [Compound 32] it is 0.

The molecule `C#CC(=O)CCC` [Compound 39, 1-Hexyn-3-one] came in with a Relative rate of 0. Same read-out and setting: the figure for `CC(=O)C1CCc2ccccc2C1=O` (stereo not drawn) [Compound 55] is 0; for `C=CCCC(C)=O` [Compound 22] it is 8. Still for that read-out and setting: the figure for `CC(=O)CCC(=O)O` [Compound 29] is 0.

The molecule `O=C1C2CCC(C2)C1Cl` (stereo not drawn) [Compound 45] had a Relative rate of 2. The molecule `CC1=CC(=O)CCC1` [Compound 43] returned a Relative rate of 0. The same measure, in the same setting: the figure for `CC(=O)C(C)O` (stereo not drawn) [Compound 63] is 2; for `C#CC(=O)CCl` [Compound 37] it is 2; for `CC(=O)CC(C)=O` [Compound 25] it is 32. The same measure, in the same setting: the figure for `O=C1CC2C=CC1C2` (stereo not drawn) [Compound 47] is 0; for `CC(=O)COc1ccccc1` [Compound 48] it is 7; for `CO/C=C/C(C)=O` [Compound 71] it is 0. Still for that read-out and setting: the result for `CSC(C)C(C)=O` (stereo not drawn) [Compound 67] reads 5. In the case of `CCOC(OCC)C(=O)c1ccccc1` [Compound 50], the Relative rate is given as under 0.1. In the case of `CCCCCC(=O)C(=O)O` [Compound 30], the Relative rate is recorded as 0. On the same count and under the same terms, the result for `CCCCCC(C)=O` [Compound 62] reads 5. On the same count and under the same terms, the figure for `CC(=O)C(C)CO` (stereo not drawn) [Compound 68] is 0. On the same count and under the same terms, the result for `CC(=O)c1c[nH]c2ccccc12` [Compound 53] reads 0. In turn, `C#CC(=O)CCC(=O)OC` [Compound 38, Methyl-4-oxo-5-hexynoate] registered a Relative rate of under 0.1. With `O=C1C=CCCC1` [Compound 42], the Relative rate was 0. The same measure, in the same setting: the figure for `CCCCCC(=O)CC` [Compound 35] is 2. Same read-out and setting: the figure for `CCOC(=O)CC(=O)CC` [Compound 33] is 6.

Still in this assay, the particulars now being: footnote b of Table 1; 10 mM ketone, 0.45 mM NADH.
Turning to `CC(=O)c1ccccc1` [Compound 2, acetophenone], the “Rate of reduction corresponding to relative rate 1” value is on record as 2.1 U/mg enzyme.

Still in this assay, the particulars now being: statement in words on Table 1.
Regarding `CC(=O)CCc1ccccc1` [Compound 6, 4-phenyl-2-butanone], the “Substrate quality compared with acetophenone” value was “as good a substrate as is acetophenone”.

In the next assay the test system is PED alcohol dehydrogenase. Put plainly: Kinetics and product inhibition of PED alcohol dehydrogenase, oxidation of 2-propanol with NAD. Particulars: isolated PED alcohol dehydrogenase. The assay is classed as biochemical, Pseudomonas sp. strain PED.
The Km is the concentration of substrate that gives half-maximal velocity. In the case of `CC(C)O` [Compound 2-propanol, 2-propanol], the Km amounted to 75 µM.

Regarding `NC(=O)c1ccc[n+]([C@@H]2O[C@H](COP(=O)([O-])OP(=O)(O)OC[C@H]3O[C@@H](n4cnc5c(N)ncnc54)[C@H](O)[C@@H]3O)[C@@H](O)[C@H]2O)c1` [NAD, nicotinamide adenine dinucleotide], the Km is 525 µM.

Still in this assay, the particulars now being: oxidation of 2-propanol.
As to `NC(=O)C1=CN([C@@H]2O[C@H](COP(=O)(O)OP(=O)(O)OC[C@H]3O[C@@H](n4cnc5c(N)ncnc54)[C@H](O)[C@@H]3O)[C@@H](O)[C@H]2O)C=CC1` [NADH, reduced nicotinamide adenine dinucleotide], the “Product inhibition type versus 2-propanol” value is reported as “noncompetitive inhibitors” and the “Product inhibition type versus NAD” value was “competitive inhibition”. The like results for `CC(C)=O` [acetone] were, in that order, “noncompetitive inhibitors” and “noncompetitive inhibition”.

The same assay, now with this note: with respect to 2-propanol under saturating NAD conditions.
Regarding `CC(C)O` [Compound 2-propanol, 2-propanol], the specific activity amounted to 36 U/mg.

(Values after patent US5385833A, “Pseudomonas sp. ATCC No. 49794 alcohol dehydrogenase” (The Scripps Research Institute, priority 1992, dated 1995).)
